# Assay results taken from paper PMC11997307, “Rat Sarcoma (RAS)-Protein-Targeting Synthetic Cell-Penetrating Peptide as an Anticancer Biomaterial” (Biomaterials Research, 2025).
# Assays:
# MDA-MB-231 cells [1] = assay: Cell viability, CCK-8 assay, MDA-MB-231; format: cell-based, human; conditions: MDA-MB-231 (KRAS G13D), CCK-8, 0-1,000 μM RBP, 24, 48 or 72 h, triplicate
# Protocol: The viability of the cells was determined via Cell Counting Kit-8 (CCK-8; Dojindo Laboratories, Kumamoto, Japan) assay. The cells were plated in 96-well culture plates at a density of 5 × 10^3 cells per well and incubated for 24 h at 37 °C in a humidified incubator with 5% CO2. […] After incubation, the medium was replaced with fresh medium containing 10% (v/v) CCK-8 reagent, and the cells were incubated for 2 h. Absorbance was measured at 450 nm using a microplate reader. All experiments were performed in triplicate.
# MDA-MB-231 cells [2] = assay: Transwell migration assay; format: cell-based, human; conditions: MDA-MB-231, Transwell 8-μm pore, 200 μM RBP, 6 h
# Protocol: To assess MDA-MB-231 cell migration, 2 methods were employed: a Transwell migration assay and a scratch assay. For the Transwell migration assay, 24-well Transwell plates (8-μm pore size; Costar, Corning Incorporated, Corning, NY, USA) were used to evaluate the invasive potential of the cells. […] Following a 6-h incubation period, nonmigratory cells were carefully removed from the upper surface of the membrane using a PBS-soaked cotton swab. The cells that successfully migrated through the membrane were fixed in methanol for 10 min, and Giemsa staining was used to visualize them. Images were captured using an Olympus DP72 camera at ×100 magnification, and the number of migrated cells in the treated samples was compared with that in the control samples. For the scratch assay, MDA-MB-231 cells (1 × 10^6 cells) were cultured in 6-well plates until they reached confluence. The cells were rinsed with PBS and incubated overnight in serum-free medium. A sterile 200-μl plastic pipette tip was used to create a linear scratch in the center of the monolayer. […] Images were taken immediately after scratching and again after 6, 24, 48, and 72 h of incubation using an Olympus CKX41 inverted microscope at ×20 magnification to evaluate the distance the cells migrated from the wound edge.
# MDA-MB-231 cells [3] = assay: Sphere formation assay; format: cell-based, human
# Protocol: The sphere formation potential of the cells was evaluated under nonadherent culture conditions. The cells were cultured in ultralow-attachment 6-well plates (Corning Life Sciences, MA, USA) at a density of 2 × 10^3 cells per well, since the low overall viability of […] prevents the use of single-cell culture methods. The cells were grown in DMEM/F12 (Invitrogen, CA, USA) supplemented with B27 serum-free supplement (1:50; Invitrogen, CA, USA), human recombinant epidermal growth factor (EGF), and 50 ng/ml human recombinant basic fibroblast growth factor (PeproTech, NJ, USA) with 100 μM peptides at 37 °C with 5% CO2. Fresh medium was added every 3 to 4 d, and sphere formation was monitored. The experiment was terminated on day 10, and the number of spheres (>50 μm) was quantified.
# integrin alpha 3 = biological target: T1, integrin alpha 3 (Homo sapiens, UniProt P26006); assay: SPR (Biacore) binding of RBP to immobilized integrin alpha 3 (selectivity control); conditions: CM5 chip, integrin alpha 3 immobilized, 11 concentrations of RBP
# T1 sequence (P26006 33-1051): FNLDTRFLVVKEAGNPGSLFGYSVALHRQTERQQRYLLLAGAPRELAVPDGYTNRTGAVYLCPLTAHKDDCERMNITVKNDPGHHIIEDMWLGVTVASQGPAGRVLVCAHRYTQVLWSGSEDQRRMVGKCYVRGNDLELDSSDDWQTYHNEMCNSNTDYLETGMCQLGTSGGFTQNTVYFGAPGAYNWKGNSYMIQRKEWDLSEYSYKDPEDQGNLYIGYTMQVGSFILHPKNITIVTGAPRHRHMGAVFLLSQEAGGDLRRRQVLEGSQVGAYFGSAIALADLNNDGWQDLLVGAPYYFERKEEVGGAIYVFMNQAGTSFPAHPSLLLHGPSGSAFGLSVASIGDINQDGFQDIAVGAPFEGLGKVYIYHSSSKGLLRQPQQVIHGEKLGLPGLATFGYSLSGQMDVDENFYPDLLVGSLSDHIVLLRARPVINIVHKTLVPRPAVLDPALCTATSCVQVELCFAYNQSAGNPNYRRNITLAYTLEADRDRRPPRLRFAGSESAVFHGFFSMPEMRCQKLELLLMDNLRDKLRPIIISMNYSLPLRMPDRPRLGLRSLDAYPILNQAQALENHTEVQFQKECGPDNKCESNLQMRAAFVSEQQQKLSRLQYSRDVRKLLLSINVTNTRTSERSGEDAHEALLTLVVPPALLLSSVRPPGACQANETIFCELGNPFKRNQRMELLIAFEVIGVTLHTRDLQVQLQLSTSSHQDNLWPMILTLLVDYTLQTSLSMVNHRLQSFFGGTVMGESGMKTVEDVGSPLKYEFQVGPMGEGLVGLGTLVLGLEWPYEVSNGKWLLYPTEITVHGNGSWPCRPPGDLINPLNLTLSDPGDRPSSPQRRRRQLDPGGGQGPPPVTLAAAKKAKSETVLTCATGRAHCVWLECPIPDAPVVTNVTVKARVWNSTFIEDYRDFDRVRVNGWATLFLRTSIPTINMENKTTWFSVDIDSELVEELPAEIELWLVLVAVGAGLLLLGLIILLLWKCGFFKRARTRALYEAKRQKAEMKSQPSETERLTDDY
# Protocol: N-Hydroxysuccinimide (NHS) and EDC were used as cross-linkers. The remaining unreacted active groups on the dextran surface were blocked with ethanolamine. The running buffer consisted of 150 mM NaCl, 5 mM EDTA, and 0.05% Tween 20 in 10 mM Hepes, pH 7.4. A CM5 chip without immobilized protein was used as the blank surface in the Biacore assay (Biacore T100, GE Healthcare Bio-Sciences AB, Uppsala, Sweden). […] The dissociation phase was conducted for 5 min.
structure (smiles),measurement,setting,value
C[C@@H](O)[C@H](NC(=O)[C@H](CO)NC(=O)[C@H](CS)NC(=O)[C@H](CCCCN)NC(=O)CN)C(=O)N[C@@H](CCCNC(=N)N)C(=O)NCC(=O)N[C@@H](CCCNC(=N)N)C(=O)N[C@@H](CCCCN)C(=O)N[C@@H](CS)C(=O)N[C@@H](CS)C(=O)N[C@@H](CCCNC(=N)N)C(=O)N[C@@H](CCCNC(=N)N)C(=O)N[C@@H](CCCCN)C(=O)N[C@@H](CCCCN)C(N)=O [RBP],percentage of viable cells,MDA-MB-231 cells [1],reduced the percentage of viable KRAS G13D mutant cells in a dose-dependent manner
same,reduction of cell invasion vs NT group,MDA-MB-231 cells [2],70%
same,spherical colonies observed in RBP-treated groups,"MDA-MB-231 cells [3]; MDA-MB-231, serum-free medium with growth factors, nonadherent conditions, after 3 d (Fig. 2C legend)",no colonies >30 μm in diameter were observed
same,sphere proliferation vs control,"MDA-MB-231 cells [3]; MDA-MB-231, ultralow-attachment plates, 100 μM peptide added on the first day, 10 d",significantly suppressed
same,binding to unrelated receptor integrin alpha 3,integrin alpha 3,did not bind
